According to US8377981B2, “CBI derivatives subject to reductive activation” (The Scripps Research Institute, priority 2007, dated 2013):
Like-named read-outs stand apart in the source and are kept apart here.

Columns and labels:
[1] = Stability in human plasma; format: in vitro ADME; conditions: 50 μg/100 μL, 10% DMSO, release of free drug 2
[2] = Chemical stability and reactivity of the N-acyl O-amino phenol derivatives; format: physicochemical
[3] = Stability in pH 7.0 phosphate buffer; format: physicochemical; conditions: HPLC, UV; monitored 72 hours
[4] = test system: L1210 cell line (mouse leukemia); test: Cytotoxic activity, L1210 cell line; format: cell-based
Method: (§1) The O-amino phenol derivatives bearing the N—O prodrug linkages and the various N-acyl substituents were assayed for cytotoxic activity alongside the parent drugs CBI-TMI (2) (Boger, D. L.; Yun, W. J. Am. Chem. Soc. 1994, 116, 7996) and mitomycin C (Boger, D. L.; et al. Bioorg. Med. Chem. Lett. 1991, 1, 115; Boger, D. L.; et al. Bioorg. Med. Chem. 1995, 3, 1429) as well as the two control standards 9 and 10 incapable of free phenol release. Three cell lines were examined including a standard L1210 cell line (mouse leukemia) as well as the mitomycin-sensitive (H460, expresses high levels of DT-Diaphorase) and resistant (H596, lacks DT-Diaphorase) non small cell lung cancer (NSCLC) cell lines, with results shown in the Table below.

[5] = test system: H596 (mitomycin-resistant, lacks DT-Diaphorase) non small cell lung cancer (NSCLC) cell line; test: Cytotoxic activity, H596 cell line; format: cell-based; conditions: Homo sapiens, NCI-H596, read-out: IC50 (nM) H596
Method: as §1

[6] = test system: H460 (mitomycin-sensitive, expresses high levels of DT-Diaphorase) non small cell lung cancer (NSCLC) cell line; test: Cytotoxic activity, H460 cell line; format: cell-based; conditions: for IC50: Homo sapiens, NCI-H460, read-out: IC50 (nM) H460
Method: as §1

w794 duplex DNA = test: DNA alkylation selectivity and efficiency (thermally-induced strand cleavage); format: biochemical
Method: FIG. 1 illustrates the results of an electrophoresis gel with 8% denaturing PAGE and autoradiography. Thermally-induced strand cleavage of w794 DNA; DNA-agent incubation at 4° C. for 18 hours, removal of unbound agent by EtOH precipitation, and 30 minutes of thermolysis (100° C.) followed by 8% denaturing PAGE and autoradiography. Lane 1, control DNA; lanes 2-5, Sanger G, C, A, and T sequencing reactions; lanes 6-8, 2 (1×10^−4 to 1×10^−6); lanes 9-11, 10 (1×10^−1 to 1×10^−3); lanes 12-14, 4 (1×10^−1 to 1×10^−3), lanes 15-17, 9 (1×10^−1 to 1×10^−3).
The DNA alkylation properties of 4 were examined alongside the parent drug CBI-TMI (2), and the two control standards 9 and 10 (incapable of spirocyclization) within w794 duplex DNA (Boger, D. L.; et al. Tetrahedron 1991, 47, 2661) for which results for an extensive series of duocarmycin analogues have been reported. The sites of DNA alkylation and its efficiency were directly assessed by thermally-induced singly 5′ end-labeled duplex DNA strand cleavage following incubation with the agents ([…], natural enantiomers examined).
The DNA alkylation reactions were performed by treatment of 4.5 μL of singly ^32P 5′-end-labeled double-stranded w794 DNA (Boger, D. L.; et al. Tetrahedron 1991, 47, 2661) in TE buffer (10 mM Tris, 1 mM EDTA, pH 7.6) with 0.5 μL of agent in EtOH (at the specified concentration). […] Unbound agent was removed by EtOH precipitation of DNA (0.5 μL of 3.0 M sodium acetate and 12.5 μL of cold absolute EtOH) and the solutions were stored at −78° C. for 1 hour or longer. The DNA was pelleted by centrifugation at 4° C. (13000 rpm, 25 minutes), dried in a Savant Speed Vac concentrator, and resuspended in 5 μL of TE buffer (pH 7.6). Thermal depurination (3×10 minutes at 100° C.) was performed and then 2.5 μL of formamide dye solution was added to the cooled samples. Thermally denatured samples were assayed by gel electrophoresis [8% denaturing gel with 8 M urea in TBE buffer (89 mM Tris-borate, 2 mM EDTA)] followed by autoradiography of the dried gel using Kodak BIOMAX XAR film and a Picker Spectra™ intensifying screen.

[7] = Mus musculus, L1210, read-out: IC50 (nM) L1210, natural enantiomer series, CBI-TMI derivatives

Compound	half-life [1]	stability to treatment with BnSH in MeOH with NaHCO3 ([2]; BnSH in MeOH, NaHCO3, 2 hours, 23° C.)	stability to treatment with BnSH ([2]; BnSH in THF (2-72 hours, 23° C.) or MeOH (2-72 hours, 23° C.))	stability to treatment with BnSH in THF with insoluble NaHCO3 ([2]; BnSH in THF, insoluble NaHCO3, 2 hours, 23° C.)	stability in MeOH ([2]; MeOH)	stability to NaHCO3 or Na2CO3 in MeOH ([2]; NaHCO3 or Na2CO3 in MeOH, 2 hours, 23° C.)	stability to acidic conditions ([2]; TFA-CH2Cl2, 4 N HCl-EtOAc)	stability on long term storage ([2]; storage)	stability in pH 7.0 phosphate buffer [3]	IC50 [4, 7]	fold less potent than 2 ([4]; against L1210, natural enantiomer)	IC50 [5]	IC50 [6]	potency compared with 2 ([6]; against H460/H596)	DNA alkylation efficiency, reduction relative to CBI-TMI (2) (w794 duplex DNA; w794 DNA, 4° C., 18 hours, natural enantiomers)	DNA alkylation sequence selectivity (w794 duplex DNA; w794 DNA, compared with CBI-TMI (2))	DNA alkylation under forcing conditions (w794 duplex DNA; 37° C., 18 hours, data not shown)	observable DNA alkylation (w794 duplex DNA; w794 DNA, 4° C., 18 hours)	IC50 ([4]; read-out: IC50 (nM) L1210, natural enantiomer series, CBI-TMI derivatives)	DNA alkylation relative to that of 2 (w794 duplex DNA; w794 DNA, natural enantiomers)
COc1cc2cc(C(=O)N3C[C@@H](CCl)c4c3cc(ONC(=O)OC(C)(C)C)c3ccccc43)[nH]c2c(OC)c1OC [Compound 4]	3 h	cleaved to release 2	stable	stable	stable	2 was released slowly	surprisingly robust to acidic conditions	withstanding even long term storage effectively	no significant cleavage of the prodrug was observed	0.5 nM	10 fold	6 nM	1 nM	essentially equipotent	1,000-10,000 fold	identical sequence selectivity				
COc1cc2cc(C(=O)N3C[C@@H](CCl)c4c3ccc3ccccc43)[nH]c2c(OC)c1OC [Compound 9]										> 100 nM		> 100 nM	> 100 nM				no appreciable DNA alkylation	failed to exhibit significant observable DNA alkylation		
COc1cc2cc(C(=O)N3C[C@@H](CCl)c4c3cc(OC)c3ccccc43)[nH]c2c(OC)c1OC [Compound 10]										> 100 nM		> 100 nM	> 100 nM					failed to exhibit significant observable DNA alkylation	50 nM	< 0.01%
